Reference: ChEMBL document CHEMBL4382208, “Design, synthesis and biological evaluation of novel 2-sulfonylindoles as potential anti-inflammatory therapeutic agents for treatment of acute lung injury” (Eur J Med Chem, 2018)
pIC50: −log10 of the molar value. Activity calls are given as the source filed them. The calls are words filed in the database; no cut-off is given here.

Columns and labels:
Peritoneal macrophage [1] = assay: Antiinflammatory activity in mouse primary peritoneal macrophages assessed as inhibition of LPS-induced TNF-alpha production at 10 uM preincubated for 30 mins followed by LPS addition and measured after 24 hrs by ELISA relative to control; format: functional
Peritoneal macrophage [2] = assay: Cytotoxicity against mouse primary peritoneal macrophages assessed as reduction in cell viability at 10 uM after 24 hrs by MTT assay; format: cell-based
Peritoneal macrophage [3] = assay: Antiinflammatory activity in mouse primary peritoneal macrophages assessed as inhibition of LPS-induced IL-6 production at 10 uM preincubated for 30 mins followed by LPS addition and measured after 24 hrs by ELISA relative to control; format: functional
Peritoneal macrophage [4] = assay: Antiinflammatory activity in mouse primary peritoneal macrophages assessed as inhibition of LPS-induced IL-6 production preincubated for 30 mins followed by LPS addition and measured after 24 hrs by ELISA; format: functional, cell-based
Peritoneal macrophage [5] = assay: Antiinflammatory activity in mouse primary peritoneal macrophages assessed as inhibition of LPS-induced TNF-alpha production preincubated for 30 mins followed by LPS addition and measured after 24 hrs by ELISA; format: functional, cell-based
Mus musculus [6] = assay: Antiinflammatory activity in C57BL/6 mouse assessed as inhibition of LPS-induced TNF-alpha level in bronchoalveolar lavage fluid at 10 to 20 mg/kg, ip pretreated for 30 mins followed by LPS addition measured after 6 hrs; format: functional, organism-based
Mus musculus [7] = assay: Antiinflammatory activity in C57BL/6 mouse assessed as inhibition of LPS-induced total number of cells in bronchoalveolar lavage fluid at 10 to 20 mg/kg, ip pretreated for 30 mins followed by LPS addition measured after 6 hrs by Giemsa staining-based assay; format: functional, organism-based
Peritoneal macrophage [8] = assay: Antiinflammatory activity in mouse primary peritoneal macrophages assessed as inhibition of LPS-induced IL-1beta mRNA expression at 5 to 10 uM by RT-qPCR analysis; format: functional, cell-based
Mus musculus [9] = assay: Antiinflammatory activity in C57BL/6 mouse assessed as inhibition of LPS-induced destruction of alveolar structure at 10 to 20 mg/kg, ip pretreated for 30 mins followed by LPS addition measured after 6 hrs by hematoxylin and eosin staining based microscopic analysis; format: functional, organism-based
Mus musculus [10] = assay: Antiinflammatory activity in C57BL/6 mouse assessed as inhibition of LPS-induced IL-6 level in bronchoalveolar lavage fluid at 10 to 20 mg/kg, ip pretreated for 30 mins followed by LPS addition measured after 6 hrs; format: functional, organism-based
Mus musculus [11] = assay: Antiinflammatory activity in C57BL/6 mouse assessed as inhibition of LPS-induced neutrophil filtration in lung by measuring myeloperoxidase activity at 10 to 20 mg/kg, ip pretreated for 30 mins followed by LPS addition measured after 6 hrs by Giemsa staining-based assay; format: functional, organism-based
Peritoneal macrophage [12] = assay: Antiinflammatory activity in mouse primary peritoneal macrophages assessed as inhibition of LPS-induced VCAM-1 mRNA expression at 5 to 10 uM by RT-qPCR analysis; format: functional, cell-based
Mus musculus [13] = assay: Antiinflammatory activity in C57BL/6 mouse assessed as inhibition of LPS-induced IL-1beta mRNA expression in lungs at 10 to 20 mg/kg, ip by RT-qPCR analysis; format: functional, organism-based
Peritoneal macrophage [14] = assay: Antiinflammatory activity in mouse primary peritoneal macrophages assessed as inhibition of LPS-induced IL-6 mRNA expression at 5 to 10 uM by RT-qPCR analysis; format: functional, cell-based
Mus musculus [15] = assay: Antiinflammatory activity in C57BL/6 mouse assessed as inhibition of LPS-induced macrophage filtration in lung by measuring CD68 protein expression at 10 to 20 mg/kg, ip pretreated for 30 mins followed by LPS addition measured after 6 hrs by immunohistochemistry; format: functional, organism-based
Mus musculus [16] = assay: Antiinflammatory activity in C57BL/6 mouse assessed as inhibition of LPS-induced lung edema at 10 to 20 mg/kg, ip pretreated for 30 mins followed by LPS addition measured after 6 hrs by hematoxylin and eosin staining based microscopic analysis; format: functional, organism-based
Mus musculus [17] = assay: Antiinflammatory activity in C57BL/6 mouse assessed as inhibition of LPS-induced total protein level in bronchoalveolar lavage fluid at 10 to 20 mg/kg, ip pretreated for 30 mins followed by LPS addition measured after 6 hrs; format: functional, organism-based
Mus musculus [18] = assay: Antiinflammatory activity in C57BL/6 mouse assessed as reduction in lung wet/dry ratio at 10 to 20 mg/kg, ip pretreated for 30 mins followed by LPS addition measured after 6 hrs; format: functional, organism-based
Mus musculus [19] = assay: Antiinflammatory activity in C57BL/6 mouse assessed as inhibition of LPS-induced alveolar hemorrhage at 10 to 20 mg/kg, ip pretreated for 30 mins followed by LPS addition measured after 6 hrs by hematoxylin and eosin staining based microscopic analysis; format: functional, organism-based
Mus musculus [20] = assay: Antiinflammatory activity in C57BL/6 mouse assessed as inhibition of LPS-induced IL-6 mRNA expression in lungs at 10 to 20 mg/kg, ip by RT-qPCR analysis; format: functional, organism-based
Mus musculus [21] = assay: Antiinflammatory activity in C57BL/6 mouse assessed as inhibition of LPS-induced VCAM-1 mRNA expression in lungs at 10 to 20 mg/kg, ip by RT-qPCR analysis; format: functional, organism-based
Mus musculus [22] = assay: Antiinflammatory activity in C57BL/6 mouse assessed as inhibition of LPS-induced inflammatory cell infiltration at 10 to 20 mg/kg, ip pretreated for 30 mins followed by LPS addition measured after 6 hrs by hematoxylin and eosin staining based microscopic analysis; format: functional, organism-based

For Cc1ccc(S(=O)(=O)c2c(C)c3ccccc3n2C)cc1, the inhibition (Peritoneal macrophage [1]) was “Active”, the Activity (Peritoneal macrophage [2]) was “Non-Toxic” and the inhibition (Peritoneal macrophage [3]) was “Active”.
With COc1ccc2c(c1)cc(S(=O)(=O)c1ccc(C(F)(F)F)cc1)n2C the inhibition (Peritoneal macrophage [1]) was “Active”, the Activity (Peritoneal macrophage [2]) was “Non-Toxic” and the inhibition (Peritoneal macrophage [3]) was “Active”.
With COc1ccc2c(c1)cc(S(=O)(=O)c1ccc(C(C)(C)C)cc1)n2C the inhibition (Peritoneal macrophage [1]) was “Active”, the Activity (Peritoneal macrophage [2]) was “Non-Toxic” and the inhibition (Peritoneal macrophage [3]) was “Active”.
With Cn1c(S(=O)(=O)c2ccccc2)cc2ccccc21 the inhibition (Peritoneal macrophage [1]) was “Active”, the Activity (Peritoneal macrophage [2]) was “Non-Toxic” and the inhibition (Peritoneal macrophage [3]) was “Active”.
With COc1ccc2c(c1)cc(S(=O)(=O)c1ccc(C)cc1)n2C the inhibition (Peritoneal macrophage [1]) was “Active”, the Activity (Peritoneal macrophage [2]) was “Non-Toxic” and the inhibition (Peritoneal macrophage [3]) was “Active”.
With Cc1ccc(S(=O)(=O)c2cc3c(Cl)cccc3[nH]2)cc1 the inhibition (Peritoneal macrophage [1]) was “Active”, the Activity (Peritoneal macrophage [2]) was “Non-Toxic” and the inhibition (Peritoneal macrophage [3]) was “Active”.
For Cc1ccc(S(=O)(=O)c2cc3ccccc3n2C)cc1, the inhibition at 10 µM (Peritoneal macrophage [1]) was 82%, the Activity (Peritoneal macrophage [2]) was “Non-Toxic” and the inhibition at 10 µM (Peritoneal macrophage [3]) was 88%. The pIC50 (Peritoneal macrophage [4]) was 5.62, the inhibition (Peritoneal macrophage [4]) was “Dose-dependent effect” and the pIC50 (Peritoneal macrophage [5]) was 4.92. For the same molecule, the inhibition (Peritoneal macrophage [5]) was “Dose-dependent effect”.
With Cn1c(S(=O)(=O)c2ccc(F)cc2)cc2ccccc21 the inhibition (Peritoneal macrophage [1]) was “Active”, the Activity (Peritoneal macrophage [2]) was “Non-Toxic” and the inhibition (Peritoneal macrophage [3]) was “Active”.
Cn1c(S(=O)(=O)c2cccc3ccccc23)cc2ccccc21 was tested, and the inhibition (Peritoneal macrophage [1]) was “Active”, the Activity (Peritoneal macrophage [2]) was “Non-Toxic” and the inhibition (Peritoneal macrophage [3]) was “Active”.
In the case of Cn1c(S(=O)(=O)c2ccc(-c3ccccc3)cc2)cc2ccccc21, the inhibition (Peritoneal macrophage [1]) was “Active”, the Activity (Peritoneal macrophage [2]) was “Non-Toxic” and the inhibition (Peritoneal macrophage [3]) was “Active”.
With Cc1c(S(=O)(=O)c2ccc(C(C)(C)C)cc2)n(C)c2ccccc12 the inhibition (Peritoneal macrophage [1]) was “Active”, the Activity (Peritoneal macrophage [2]) was “Non-Toxic” and the inhibition (Peritoneal macrophage [3]) was “Active”.
In the case of Cn1c(S(=O)(=O)c2ccc(C(F)(F)F)cc2)cc2ccccc21, the inhibition (Mus musculus [6]) was “Active”, the inhibition (Mus musculus [7]) was “Active” and the inhibition at 10 µM (Peritoneal macrophage [1]) was 82%. The Activity (Peritoneal macrophage [2]) was “Non-Toxic”, the inhibition (Peritoneal macrophage [8]) was “Active” and the inhibition at 10 µM (Peritoneal macrophage [3]) was 88%. For the same molecule, the inhibition (Mus musculus [9]) was “Active”, the inhibition (Mus musculus [10]) was “Active” and the inhibition (Mus musculus [11]) was “Active”. For the same molecule, the inhibition (Peritoneal macrophage [12]) was “Active”, the inhibition (Mus musculus [13]) was “Active” and the inhibition (Peritoneal macrophage [14]) was “Active”. For the same molecule, the inhibition (Mus musculus [15]) was “Active”, the pIC50 (Peritoneal macrophage [4]) was 5.74 and the inhibition (Peritoneal macrophage [4]) was “Dose-dependent effect”. For the same molecule, the inhibition (Mus musculus [16]) was “Active”, the inhibition (Mus musculus [17]) was “Active” and the Activity (Mus musculus [18]) was “Active”. The inhibition (Mus musculus [19]) was “Active”, the inhibition (Mus musculus [20]) was “Active” and the inhibition (Mus musculus [21]) was “Active”. For the same molecule, the pIC50 (Peritoneal macrophage [5]) was 5.10, the inhibition (Peritoneal macrophage [5]) was “Dose-dependent effect” and the inhibition (Mus musculus [22]) was “Active”.
With Cc1ccc2cc(S(=O)(=O)c3cccc4ccccc34)[nH]c2c1 the inhibition (Peritoneal macrophage [1]) was “Active”, the Activity (Peritoneal macrophage [2]) was “Non-Toxic” and the inhibition (Peritoneal macrophage [3]) was “Active”.
With Cc1ccc(S(=O)(=O)c2cc3c(Cl)cccc3n2C)cc1 the inhibition (Peritoneal macrophage [1]) was “Active”, the Activity (Peritoneal macrophage [2]) was “Non-Toxic” and the inhibition (Peritoneal macrophage [3]) was “Active”.
In the case of COc1ccc2c(c1)c(CC(=O)O)c(C)n2C(=O)c1ccc(Cl)cc1 [INDOMETHACIN], the inhibition (Peritoneal macrophage [1]) was “Active”, the Activity (Peritoneal macrophage [2]) was “Non-Toxic” and the inhibition (Peritoneal macrophage [3]) was “Active”.
For Cc1ccc(S(=O)(=O)c2cc3ccc(C)cc3n2C)cc1, the inhibition (Peritoneal macrophage [1]) was “Active”, the Activity (Peritoneal macrophage [2]) was “Non-Toxic” and the inhibition (Peritoneal macrophage [3]) was “Active”.
